What was measured:
U87 GBM cells = experiment: Real-time RT-PCR of CFH/FHL-1/IDO expression in cultured U87 GBM cells; format: cell-based, human
Protocol: (§1) FIGS. 13A to 13E. Indoleamine 2,3 dioxygenase 1 (IDO) non-metabolically increases complement factor H (CFH) levels in human glioblastoma (GBM). (13A) Flow chart for the microarray experimental design, data analysis, as well as validation of results. Real-time RT-PCR confirmation of IDO regulatory effects on CFH expression in cultured (13B) U87 or (13C) PDX43 GBM. Cells were exposed to a variety of conditions including transfection with IDO specific siRNA (20 nM) or scrambled control siRNA for 16 hours, treatment with or without 100 ng/mL human interferon-gamma (IFN-γ), treatment with or without the IDO enzyme inhibitor, BGB-5777 (1 uM), or IFNγ plus BGB-5777 for 24 hours. Quantitative RT-PCR was performed (n=3 reflecting one representative experiment from 4 experimental repeats). (13D) Quantitative RT-PCR analysis of IDO and CFH mRNA expression on IFNγ-stimulated U87 cells treated with CFH siRNA or scrambled control siRNA. Same experimental conditions as in [13B] (n=3/group reflecting one representative experiment from 3 experimental repeats). (13E) mRNA expression levels for human IDO, CFH, and CD3 were quantified and compared among intracranial PDX43 and patient-resected newly-diagnosed or recurrent intracranial human GBM (n=4-9/group). Intracranially-engrafted (ic.) PDX43 was isolated from humanized mice with or without treatment of CD4′ and CD8^+ T cell depleting antibodies between 14-21 days post-intracranial injection. ***, P<0.001; ND: not detectable, ns: not significant. All bar graphs represent mean±SEM.
FIGS. 15A to 15H. Indoleamine 2,3 dioxygenase 1 (IDO) enhances the expression of both complement factor H (CFH) isoforms in human glioblastoma (GBM). (15A) Schematic representation of CFH transcript variants reflecting the full-length (CFH) and truncated (FHL-1) sequences. Pearson's correlation analysis of (15B) IDO and (15C) CD3E with CFH and FHL-1 using the TCGA GBM RNA-Seq dataset. (15D) Left panel: Western blot analysis of surgically-resected tumor tissue samples from both newly diagnosed GBM patients and recurrent GBM patients. Right panel: Protein expression of full-length and truncated CFH variants and IDO in IFNγ-stimulated U87 cells. Cells were treated with IFNγ and cultured in serum-free medium for 24 to 48 hours. Both cell lysates and cell culture supernatants were collected. The supernatants were concentrated with ultrafiltration and analyzed by Western blot along with cell lysate samples. One representative result is shown that reflects 4 experimental repeats. (15E) Time course analysis of IDO, CFH, FHL-1 mRNA expression after treatment with IFNγ in U87 (top row) and PDX43 (bottom row) GBM cells. The U87 cells were stimulated with 100 ng/ml human IFNγ and RNA lysates were extracted followed by quantitative RT-PCR analysis (n=4). (15F) Western blot of cell lysates and supernatants collected from the same experimental design as in top panel. Data from one representative experiment from 2 experiments are shown. (15G) Top panel: Western blot showing IDO protein levels in unmodified (Unmod.) as well as in CRISPR-Cas9 IDO-deleted (IDOKO) U87 cells. Unmod. U87 cells and IDOKO U87 cells were stimulated with 100 ng/mL human IFNγ for 24 hours. Protein lysates were collected from both untreated and IFNγ treated cells followed by Western blotting analysis; Lower panel: HPLC measurement of kynurenine (Kyn) and tryptophan (Trp) in Unmod. U87 and IDOKO U87 cells. (15H) Comparison of IDO, CFH, and FHL-1 mRNA expression induction in Unmod. and IDOKO U87 cells using quantified RT-PCR (n=3 per group that reflects 1 representative experiment after 2 repeats). ***, P<0.001; ND: not detectable. All bar graphs represent mean±SEM.
The microarray analysis was carried out at the Northwestern University NUSeq Core Facility using the human transcriptome analysis system, Clariom™ D Assay (Thermo Fisher Scientific). Briefly, 1×10^5 cells per well of U87 cells or IDO-OE U87 cells were seeded on 12-well plate. […]

PDX43 GBM cells = experiment: Real-time RT-PCR of CFH/FHL-1/IDO expression in cultured PDX43 GBM cells; format: cell-based, human; details: IFNγ time course
Protocol: as §1, with “Same experimental conditions as in [13B] (n=3/group reflecting one representative experiment from 3 experimental repeats).” left out, “Intracranially-engrafted (ic.) PDX43 was isolated from humanized mice with or without treatment of CD4′ and CD8^+ T cell depleting antibodies between 14-21 days post-intracranial injection. ***, P<0.001; ND: not detectable, ns: not significant. All bar graphs represent mean±SEM.” left out
FIGS. 15A to 15H. […] The supernatants were concentrated with ultrafiltration and analyzed by Western blot along with cell lysate samples. […] The U87 cells were stimulated with 100 ng/ml human IFNγ and RNA lysates were extracted followed by quantitative RT-PCR analysis (n=4). […]

[1] = test system: U87, PDX12, PDX39, and PDX43; experiment: In vitro expression analysis of human CFH mRNA in different GBM cells with or without human IFNγ; format: cell-based
Description: FIGS. 14A to 14I. Indoleamine 2,3 dioxygenase 1 (IDO) and complement factor H (CFH) mRNA levels positively correlate with T cell infiltration in patient-resected glioblastoma (GBM). (14A) mRNA expression levels for IDO and CFH in grade II (green; n=226), grade III (blue; n=249), and grade IV (GBM; red; n=172) glioma of the RNA Hi-Seq. Illumina dataset as analyzed in the cancer genome atlas (TCGA). Horizontal lines in the scatter plots represents mean±SEM. (14B) Pearson's correlation analysis for IDO and CFH mRNA levels within GBM and all-grade glioma. […] CFH mRNA levels were analyzed in U87 GBM cells co-cultured with either naïve or activated T cells or conditioned medium from activated T cells in the presence or absence of IFNγ-neutralizing antibodies. […]
Total RNA was extracted from freshly dissected tissue samples and cultured cells using the Trizol Reagent and PureLink RNA Mini Kit (Thermo Fisher Scientific), respectively. […] Quantitative real-time PCR was performed on a CFX96 Touch Real-Time PCR Detection System using the default program setting (Bio-Rad). […] The relative quantitation of gene expression was calculated using the 2-AACT method (29) with normalization of the target threshold cycle (CT) values to the internal housekeeping gene (GAPDH).

U87 cells = experiment: Western blotting of CFH, FHL-1 and IDO in U87 cell lysates and supernatants; format: cell-based, human; details: serum-free medium 24 to 48 hours
Description: FIGS. 15A to 15H. Indoleamine 2,3 dioxygenase 1 (IDO) enhances the expression of both complement factor H (CFH) isoforms in human glioblastoma (GBM). (15A) Schematic representation of CFH transcript variants reflecting the full-length (CFH) and truncated (FHL-1) sequences. Pearson's correlation analysis of (15B) IDO and (15C) CD3E with CFH and FHL-1 using the TCGA GBM RNA-Seq dataset. (15D) Left panel: Western blot analysis of surgically-resected tumor tissue samples from both newly diagnosed GBM patients and recurrent GBM patients. Right panel: Protein expression of full-length and truncated CFH variants and IDO in IFNγ-stimulated U87 cells. Cells were treated with IFNγ and cultured in serum-free medium for 24 to 48 hours. Both cell lysates and cell culture supernatants were collected. The supernatants were concentrated with ultrafiltration and analyzed by Western blot along with cell lysate samples. One representative result is shown that reflects 4 experimental repeats. […] The U87 cells were stimulated with 100 ng/ml human IFNγ and RNA lysates were extracted followed by quantitative RT-PCR analysis (n=4). […] (15H) Comparison of IDO, CFH, and FHL-1 mRNA expression induction in Unmod. and IDOKO U87 cells using quantified RT-PCR (n=3 per group that reflects 1 representative experiment after 2 repeats). ***, P<0.001; ND: not detectable. […]

In the case of “IDO-specific siRNA: human IDO-specific siRNA duplex (GE Health Dharmacon), SEQ ID NO:174 and 175 (chain 1 GCUUAUGACGCCUGUGUGAUU; chain 2 UCACACAGGCGUCAUAAGCUU; listed as RNA, chemistry not given here; listed as Homo sapiens)”, the “Effect on CFH expression (quantitative RT-PCR)” value (U87 GBM cells; U87 cells, siRNA 20 nM, 16 hours) is reported as “decreased expression of CFH”.

For “IFNγ: human recombinant interferon-gamma (Shenandoah Biotechnology), T cell effector cytokine”, the “Earliest time full-length and truncated CFH variants increased after treatment” value (PDX43 GBM cells) was 12 h, the “Effect on CFH mRNA expression in human GBM cells” value [1] was “increased CFH expression” and the “CFH and FHL-1 protein expression in cell culture supernatants (Western blot)” value (U87 cells) was “higher”. The “Earliest time IDO mRNA expression is detectable after treatment” value (U87 GBM cells; 100 ng/ml human IFNγ time course) was 4 h, the “IDO, CFH and FHL-1 mRNA expression induction” value (U87 GBM cells; CRISPR-Cas9 IDO-deleted (IDOKO) U87 cells) was “no such increase” and the “Effect on CFH expression (quantitative RT-PCR)” value (U87 GBM cells; U87 cells, 100 ng/mL, 24 hours) was “increase of CFH expression”. The “Earliest time full-length and truncated CFH variants increased after treatment” value (U87 GBM cells; U87 cells, 100 ng/ml human IFNγ time course) was 12 h and the “IDO, CFH and FHL-1 mRNA expression induction” value (U87 GBM cells; unmodified U87 cells, 100 ng/mL) was “induced and upregulated”.

B1: Complement Factor I (FI) (protein)
chain: KVTYTSQEDLVEKKCLAKKYTHLSCDKVFCQPWQRCIEGTCVCKLPYQCPKNGTAVCATNRRSFPTYCQQKSLECLHPGTKFLNNGTCTAEGKFSVSLKHGNTDSEGIVEVKLVDQDKTMFICKSSWSMREANVACLDLGFQQGADTQRRFKLSDLSINSTECLHVHCRGLETSLAECTFTKRRTMGYQDFADVVCYTQKADSPMDDFFQCVNGKYISQMKACDGINDCGDQSDELCCKACQGKGFHCKSGVCIPSQYQCNGEVDCITGEDEVGCAGFASVTQEETEILTADMDAERRRIKSLLPKLSCGVKNRMHIRRKRIVGGKRAQLGDLPWQVAIKDASGITCGGIYIGGCWILTAAHCLRASKTHRYQIWTTVVDWIHPDLKRIVIEYVDRIIFHENYNAGTYQNDIALIEMKKDGNKKDCELPRSIPACVPWSPYLFQPNDTCIVSGWGREKDNERVFSLQWGEVKLISNCSKFYGNRFYEKEMECAGTYDGSIDACKGDSGGPLVCMDANNVTYVWGVVSWGENCGKPEFPGVYTKVANYFDWISYHVGRPFISQYNV
In the case of B1, the “C3b breakdown in vitro (C3b incubated with FI and a fragment of cofactor CR1; time course followed by gel electrophoresis and GluC/SRM-MS)” value (C3b) is reported as “the formation of C3b fragments iC3b, C3f and C3c, and loss of intact C3b can be clearly detected over time”.

Source: US20230384322A1, “COMPLEMENTOME ASSAY” (Complement Therapeutics Limited, priority 2020, published 2023)
